{"source": "patent US7718634B2", "about": "“Method of treatment using bisphosphonic acid” (Hoffman-La Roche Inc., priority 2002, dated 2010)", "origin": "cited, not measured here", "key": {"[1]": {"system": "bone resorption", "settings": "animal models of bone resorption"}, "[2]": {"system": "osteoclasts"}}, "data": [{"smiles": "CCCCCN(C)CCC(O)(P(=O)(O)O)P(=O)(O)O", "note": "[ibandronate, 1-hydroxy-3-(N-methyl-N-pentyl)aminopropylidene-1,1-bisphosphonic acid]", "values": [{"measurement": "times more potent than alendronate", "setting": "[1]; relative to alendronate", "result": 10, "unit": "times"}, {"measurement": "times more potent than clodronate", "setting": "[1]; relative to clodronate", "result": 500, "unit": "times"}, {"measurement": "times more potent than pamidronate", "setting": "[1]; relative to pamidronate", "result": 50, "unit": "times"}, {"measurement": "times more potent than risedronate", "setting": "[1]; relative to risedronate", "result": 2, "unit": "times"}, {"measurement": "number of osteoclasts", "setting": "[2]; at high doses", "result": "reduces the number of osteoclasts"}, {"measurement": "bone resorption and mineralization", "setting": "[2]; in vivo", "result": "inhibits bone resorption without any impairment of mineralization"}, {"measurement": "osteoclastic activity", "setting": "[2]; in vivo", "result": "decrease osteoclastic activity"}]}]}
